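These data come from cells grown in 96-well plates and exposed to compound for 48 hours at five concentrations. GI50: concentration for 50% inhibition of growth. TGI marks complete inhibition of growth.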
Legend:
Assay in all cases: NCI tumour cell line growth inhibition, 48 h
HOP-62 NSCLC = tested on: HOP-62 NSCLC
K-562 leukemia = tested on: K-562 leukemia
OVCAR-3 ovarian = tested on: OVCAR-3 ovarian
SF-539 CNS = tested on: SF-539 CNS
HCT-15 colon = tested on: HCT-15 colon
U251 CNS = tested on: U251 CNS
HOP-92 NSCLC = tested on: HOP-92 NSCLC
SNB-75 CNS = tested on: SNB-75 CNS
OVCAR-8 ovarian = tested on: OVCAR-8 ovarian
TK-10 renal = tested on: TK-10 renal

Row | SMILES | GI50 (HOP-62 NSCLC) | TGI (HOP-62 NSCLC) | GI50 (K-562 leukemia) | TGI (K-562 leukemia) | GI50 (OVCAR-3 ovarian) | TGI (OVCAR-3 ovarian) | GI50 (SF-539 CNS) | TGI (SF-539 CNS) | GI50 (HCT-15 colon) | TGI (HCT-15 colon) | GI50 (U251 CNS) | TGI (U251 CNS) | GI50 (HOP-92 NSCLC) | TGI (HOP-92 NSCLC) | GI50 (SNB-75 CNS) | TGI (SNB-75 CNS) | GI50 (OVCAR-8 ovarian) | TGI (OVCAR-8 ovarian) | GI50 (TK-10 renal) | TGI (TK-10 renal)
1 | Cc1ccccc1C(C(=O)NC1CCCCC1)N(C(=O)Cn1ccnc1C)c1cccc(F)c1 (centres undefined) | > 60.4 µM | > 100 µM | > 100 µM | > 100 µM | > 69.5 µM | > 100 µM | 33.1 µM | > 66.5 µM | > 100 µM | > 100 µM | > 52.1 µM | > 100 µM | 20 µM | > 100 µM | 15.6 µM | 59.1 µM | > 82.6 µM | > 100 µM | 27.5 µM | 71.7 µM
2 | NC1=C(Cl)C(=O)c2ccccc2C1=O | – | 32 µM | – | 39 µM | – | 7.29 µM | – | 20.8 µM | – | 12.2 µM | – | 13.9 µM | – | 33.7 µM | – | 27.3 µM | – | 27.8 µM | – | 49 µM
3 | O=C(/C=C\c1ccc2ccccc2n1)c1cc(Cl)ccc1O | 6.54 µM | 20.7 µM | 3.46 µM | 23.2 µM | 5.31 µM | 17.1 µM | 7.15 µM | 23.2 µM | 2.43 µM | 8.86 µM | 2.31 µM | 5.2 µM | 1.82 µM | 9.35 µM | 6.58 µM | 21 µM | 3.16 µM | 14.7 µM | 7.88 µM | 85.3 µM
4 | CCC(=O)c1ccc2c(c1)N(CCCN1CCN(CCO)CC1)c1ccccc1S2 | 16.2 µM | 30.3 µM | 3.24 µM | 9.83 µM | 15.6 µM | 29.8 µM | 12.2 µM | 27 µM | 9.88 µM | 28.3 µM | 13.2 µM | 27.9 µM | 3.43 µM | 15.2 µM | 13.5 µM | 27 µM | 16.9 µM | 32.7 µM | 13.9 µM | 27.5 µM
5 | O=C(NC1(C(=O)O)CC1c1ccccc1)c1ccccc1 (centres undefined) | – | > 100 µM | – | > 100 µM | – | > 100 µM | – | > 100 µM | – | > 100 µM | – | > 100 µM | – | > 100 µM | – | > 100 µM | – | > 100 µM | – | > 100 µM
6 | COc1ccc2[nH]cc(-c3nc(-c4c[nH]c5ccncc45)cs3)c2c1 | 2.08 µM | 4.77 µM | 1.72 µM | 4.7 µM | 2.18 µM | 4.07 µM | 1.64 µM | 3.09 µM | 1.95 µM | 4.29 µM | 1.91 µM | 3.67 µM | 1.79 µM | 3.75 µM | 6.96 µM | 20.1 µM | 2.37 µM | 6.05 µM | 2.59 µM | 4.64 µM
7 | Cc1cc2nc3c4cccc(O)c4n(CCN(C)C)c3nc2cc1C | 1.88 µM | 7.53 µM | 1.24 µM | 4.77 µM | 3.11 µM | 15.7 µM | 1.51 µM | 3.23 µM | 1.29 µM | 3.79 µM | 2.05 µM | 7.72 µM | 1.57 µM | 7.58 µM | 1.18 µM | 11.1 µM | 1.83 µM | 10.3 µM | 4.37 µM | 19.8 µM
8 | CO/C(=N\N=C\c1cccc(C(F)(F)F)c1)c1ccncc1 | 13.2 µM | > 100 µM | 3.08 µM | > 100 µM | – | 84.1 µM | – | 37.1 µM | 4.54 µM | 68.2 µM | – | 80.2 µM | – | > 100 µM | – | 52.9 µM | 17.4 µM | > 100 µM | – | > 100 µM
9 | CN(C)CCNC(=O)c1nc([N+](=O)[O-])cn1C | – | > 100 µM | – | > 100 µM | – | > 100 µM | – | > 100 µM | – | > 100 µM | – | > 100 µM | – | > 100 µM | – | > 100 µM | – | > 100 µM | – | > 100 µM
10 | Cc1ccc(C[P+](c2ccccc2)(c2ccccc2)c2ccccc2)cc1 | 1.55 µM | 6.28 µM | 0.574 µM | > 24.6 µM | 0.638 µM | 5.19 µM | 2.15 µM | > 46.4 µM | 11.7 µM | > 73.1 µM | 0.628 µM | > 39.3 µM | 0.768 µM | 22.2 µM | 1.55 µM | 18.8 µM | 0.781 µM | 4.65 µM | 1.71 µM | 23.4 µM
11 | CCOC(=O)C1=C(c2ccccc2)N(c2ccc(OC)cc2)[C@]2(C#N)C(O)=C(Cl)C(Cl)=C(O)[C@]12C#N | 20.9 µM | 40.1 µM | 17.6 µM | 34.6 µM | 22.7 µM | 53.2 µM | 24.5 µM | 56.3 µM | 19.2 µM | 40.8 µM | 22.5 µM | 52.5 µM | 0.545 µM | 23.3 µM | 18.4 µM | 36.7 µM | 33 µM | > 100 µM | 24.3 µM | 74.8 µM
12 | Oc1cc(Cl)ccc1Cc1ccc(Cl)cc1O | 11.7 µM | 31.7 µM | 5.69 µM | > 100 µM | 3.71 µM | 13.9 µM | 11.4 µM | 25.4 µM | 8.09 µM | 20.3 µM | 6.7 µM | 21.7 µM | 2.67 µM | 8.11 µM | 13.5 µM | 34.4 µM | 15.1 µM | 48.8 µM | 17 µM | 34.8 µM
